Measurements: article PMC6156383 (Frontiers in Psychiatry, 2018)
Where “and” joins values, the source holds several entries; their conditions need not be identical. Equal values may be shown once. Where a name gives a salt, the structure may show the parent alone.

What was measured:
[1] = molecular target: T1, KOP receptor (Homo sapiens, UniProt P41145); format: biochemical
T1 construct: expressed in transfected cells

[2] = molecular target: T2, DOP receptor (Homo sapiens, UniProt P41143); format: binding
T2 construct: expressed in transfected cells

[3] = molecular target: T3, NOP receptor (Homo sapiens, UniProt P41146); test: [35S]GTPγS binding stimulation (agonist), CHO membranes; format: biochemical; settings: for NOP % stim: [35S]GTPγS stimulation relative to standard agonist N/OFQ; for EC50: [35S]GTPγS stimulation, average ± SD
T3 construct: expressed in transfected cells

[4] = molecular target: T4, MOP receptor (Homo sapiens, UniProt P35372); format: binding
T4 construct: expressed in transfected cells

[5] = molecular target: T2, DOP receptor; test: [35S]GTPγS binding stimulation (agonist), CHO membranes; format: biochemical; settings: for DOP % stim: [35S]GTPγS stimulation relative to standard agonist DPDPE; for EC50: [35S]GTPγS stimulation, * = too little stimulation (if < 15% an EC50 was not always determined)
[6] = molecular target: T3, NOP receptor; format: binding
[7] = molecular target: T4, MOP receptor; format: biochemical
[8] = molecular target: T1, KOP receptor; format: binding
[9] = molecular target: T4, MOP receptor; test: [35S]GTPγS antagonist assay and Schild analysis versus DAMGO; format: biochemical; settings: for Type of antagonism at MOP: Schild analysis; for MOP pA2 / MOP Ke: antagonist activity in [35S]GTPγS assay, Schild analysis versus DAMGO; for MOP Ke: unit not given
[10] = molecular target: T2, DOP receptor; test: [35S]GTPγS antagonist assay versus DPDPE; format: biochemical
[11] = tested on: CD1 mice; test: Mouse tail flick assay (radiant heat, acute thermal nociception); format: in vivo
[12] = molecular target: T1, KOP receptor; test: [35S]GTPγS antagonist assay versus U69593; format: biochemical
[13] = molecular target: T3, NOP receptor; test: [35S]GTPγS antagonist assay versus N/OFQ; format: biochemical

T4 sequence (P35372 whole entry): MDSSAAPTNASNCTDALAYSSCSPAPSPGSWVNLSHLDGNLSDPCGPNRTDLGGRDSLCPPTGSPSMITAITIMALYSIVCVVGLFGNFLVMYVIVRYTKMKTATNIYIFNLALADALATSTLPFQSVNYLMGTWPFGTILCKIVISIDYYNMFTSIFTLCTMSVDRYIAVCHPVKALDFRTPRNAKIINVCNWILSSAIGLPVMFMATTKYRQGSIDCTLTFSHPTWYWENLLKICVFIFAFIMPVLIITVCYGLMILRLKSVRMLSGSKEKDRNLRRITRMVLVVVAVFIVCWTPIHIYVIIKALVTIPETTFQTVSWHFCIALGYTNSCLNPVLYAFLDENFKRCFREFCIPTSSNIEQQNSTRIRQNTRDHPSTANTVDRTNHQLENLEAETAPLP
T3 sequence (P41146 whole entry): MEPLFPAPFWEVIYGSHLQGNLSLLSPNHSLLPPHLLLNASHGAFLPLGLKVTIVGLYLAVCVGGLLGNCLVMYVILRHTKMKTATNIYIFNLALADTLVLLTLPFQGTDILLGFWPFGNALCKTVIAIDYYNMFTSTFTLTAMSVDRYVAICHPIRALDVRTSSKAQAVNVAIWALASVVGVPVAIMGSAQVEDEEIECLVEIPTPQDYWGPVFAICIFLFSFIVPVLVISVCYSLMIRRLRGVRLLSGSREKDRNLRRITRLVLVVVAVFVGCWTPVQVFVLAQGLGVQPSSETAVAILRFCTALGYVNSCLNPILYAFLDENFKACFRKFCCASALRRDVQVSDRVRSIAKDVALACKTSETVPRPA
T1 sequence (P41145 whole entry): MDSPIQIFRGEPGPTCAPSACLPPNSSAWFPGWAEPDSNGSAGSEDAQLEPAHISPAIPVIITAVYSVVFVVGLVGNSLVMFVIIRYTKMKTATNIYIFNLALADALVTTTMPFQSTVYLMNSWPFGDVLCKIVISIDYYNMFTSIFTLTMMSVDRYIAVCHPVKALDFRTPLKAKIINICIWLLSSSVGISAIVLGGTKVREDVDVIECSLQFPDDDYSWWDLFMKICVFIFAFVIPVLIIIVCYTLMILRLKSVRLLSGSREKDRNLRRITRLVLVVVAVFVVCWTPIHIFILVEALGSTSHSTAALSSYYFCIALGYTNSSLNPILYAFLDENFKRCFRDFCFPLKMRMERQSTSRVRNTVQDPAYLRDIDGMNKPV
T2 sequence (P41143 whole entry): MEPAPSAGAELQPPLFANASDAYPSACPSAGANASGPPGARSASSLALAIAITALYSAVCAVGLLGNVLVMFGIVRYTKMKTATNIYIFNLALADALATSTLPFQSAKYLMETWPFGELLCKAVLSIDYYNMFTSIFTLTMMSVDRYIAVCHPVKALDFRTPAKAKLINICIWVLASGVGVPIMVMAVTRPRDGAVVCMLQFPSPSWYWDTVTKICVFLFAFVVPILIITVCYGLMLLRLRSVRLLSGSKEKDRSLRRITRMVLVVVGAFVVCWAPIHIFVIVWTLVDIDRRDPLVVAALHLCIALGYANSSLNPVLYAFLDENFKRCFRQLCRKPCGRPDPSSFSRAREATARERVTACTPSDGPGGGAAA

Row | SMILES | EC50 [1] [nM] | KOP % stim [1] | Ki [2] [nM] | NOP % stim [3] [%] | EC50 [3] [nM] | Ki [4] [nM] | DOP % stim [5] [%] | EC50 [5] [nM] | Ki [6] [nM] | EC50 [7] [nM] | MOP % stim [7] [%] | Ki [8] [nM] | further results
1 | O=C(Cc1ccccc1)O[C@@]12CCC(=O)[C@@H]3Oc4c(O)ccc5c4[C@@]31CCN(CC1CC1)[C@@H]2C5 [Compound 7a, 14β-phenylacetyl-17-cyclopropylmethyl-7,8-dihydronoroxymorphinone] | 1.2 ± 0.6 | 44.5 ± 13% | 3.1 ± 0.6 | 28.1 ± 4.8 | 401 ± 161 | 0.86 ± 0.18 | 30.5 ± 5.5 | 5.6 ± 0.4 | 127 ± 17 | 3.8 ± 1.8 | 31.6 ± 4.2 | 1.14 ± 0.46 | 
2 | Cc1ccc(CC(=O)O[C@@]23CCC(=O)[C@@H]4Oc5c(O)ccc6c5[C@@]42CCN(CC2CC2)[C@@H]3C6)cc1 [Compound 7b, 14β-(4′-methylphenylacetyl)-17-cyclopropylmethyl-7,8-dihydronoroxymorphinone] | 6.3 ± 2.2 | 11.5 ± 2.7% | 1.7 ± 0.2 | 22.3 ± 1.4 | 169 ± 3.4 | 1.87 ± 0.09 | 27.0 ± 4.8 | 3.8 ± 1.1 | 36.3 ± 4.2 | 1.6 ± 0.9 | 34.9 ± 2.0 | 1.56 ± 0.28 | 
3 | Cc1ccccc1CC(=O)O[C@@]12CCC(=O)[C@@H]3Oc4c(O)ccc5c4[C@@]31CCN(CC1CC1)[C@@H]2C5 [Compound 7c, 14β-(2′-methylphenylacetyl)-17-cyclopropylmethyl-7,8-dihydronoroxymorphinone] | 2.9 ± 1.8 | 86% and 86.3 ± 6.5% | 1.97 ± 0.19 | 21.1 ± 1.4 | 106 ± 32.2 | 3.59 ± 0.86 | 12.6 ± 3.1 | 201 ± 59 | 44.1 ± 3.1 | 2.2 ± 0.2 | 41.9 ± 1.4 | 1.69 ± 1.2 | 
4 | Cc1cccc(CC(=O)O[C@@]23CCC(=O)[C@@H]4Oc5c(O)ccc6c5[C@@]42CCN(CC2CC2)[C@@H]3C6)c1 [Compound 7d, 14β-(3′-methylphenylacetyl)-17-cyclopropylmethyl-7,8-dihydronoroxymorphinone] | 1 ± 0.3 | 46.4 ± 3.6% | 5.58 ± 0.22 | 59.3 ± 2.4 | 855 ± 185 | 1.91 ± 0.51 | 15.8 ± 0.1 | 21.3 ± 2.2 | 49.9 ± 3.5 | 5.2 ± 2 | 40.1 ± 4.4 | 2.8 ± 0.91 | 
5 | COc1cccc(CC(=O)O[C@@]23CCC(=O)[C@@H]4Oc5c(O)ccc6c5[C@@]42CCN(CC2CC2)C3C6)c1 [Compound 7e, 14β-(3′-methoxyphenylacetyl)-17-cyclopropylmethyl-7,8-dihydronoroxymorphinone] | 1.7 ± 0.4 | 46.3 ± 8.1% | 3.61 ± 0.34 | 36.1 ± 0.3 | 374 ± 81.6 | 1.1 ± 0.08 | 35.7 ± 0.7 | 9.9 ± 0.2 | 50.1 ± 2.7 | 13.3 ± 2.2 | 11.3 ± 1.3 | 1.44 ± 0.33 | 
6 | COc1ccc(CC(=O)O[C@@]23CCC(=O)[C@@H]4Oc5c(O)ccc6c5[C@@]42CCN(CC2CC2)[C@@H]3C6)cc1 [Compound 7f, 14β-(4′-methoxyphenylacetyl)-17-cyclopropylmethyl-7,8-dihydronoroxymorphinone] |  | 6.5 ± 3.3% | 2.56 ± 0.48 | 8.9 ± 1.0 | 61.8 ± 20.1 | 1.08 ± 0.33 | 18.4 ± 1.3 | 59.4 ± 19.6 | 49.8 ± 7.1 |  | 7.8 ± 3.5 | 1.9 ± 0.42 | Type of antagonism at MOP [9]: very potent competitive antagonists; MOP pA2 [9]: 10.58 ± 0.13 and 10.58 ± 0.14; MOP Ke [9]: 0.026 ± 0.008; IC50 ([9]; in the presence of 1 μM DAMGO, read-out: IC50 inhibiting DAMGO stimulation of [35S]GTPγS binding, MOP): 12.4 ± 2.25 nM; Type of inhibition at DOP ([10]; [35S]GTPγS antagonist assay): non-competitive; IC50 ([10]; [35S]GTPγS, in the presence of 1 μM DPDPE): 48.1 ± 14.1 nM; Tail flick latency versus vehicle controls ([11]; 1 mg/kg s.c.): significant increase in tail flick latency compared to vehicle controls at the 60- and 120-min time points; Effect on morphine-induced antinociception, tail flick ([11]; 1 mg/kg s.c. given 10 min before morphine, P < 0.05): morphine-induced antinociception was attenuated at the 30- and 60-min time points; Antinociception versus vehicle controls, tail flick ([11]; 3.0 mg/kg s.c.): significant antinociception at the 30- and 120-min time points; Antinociception (%MPE), tail flick ([11]; 1 and 3 mg/kg s.c., 30, 60, 120 min): low levels of antinociception; Type of inhibition at KOP ([12]; [35S]GTPγS antagonist assay): non-competitive; IC50 ([12]; [35S]GTPγS, in the presence of 1 μM U69593): 12.2 ± 0.11 nM; Type of inhibition at NOP ([13]; [35S]GTPγS antagonist assay): non-competitive; IC50 ([13]; [35S]GTPγS, in the presence of 100 nM N/OFQ): 5640 nM
7 | O=C(Cc1ccc2c(c1)OCO2)O[C@@]12CCC(=O)[C@@H]3Oc4c(O)ccc5c4[C@@]31CCN(CC1CC1)[C@@H]2C5 [Compound 7g, 14β-(3′,4′-dioxymethylenephenylacetyl)-17-cyclopropylmethyl-7,8-dihydronoroxymorphinone] | 5.4 ± 0.1 | 41.1 ± 0.9% | 1.25 ± 0.2 | 43.5 ± 9.4 | 562 ± 67.5 | 0.99 ± 0.35 |  |  | 94.3 ± 28 |  | 12.1 ± 3.7 | 1.2 ± 0.42 | Type of antagonism at MOP [9]: very potent competitive antagonists; MOP pA2 [9]: 10.29 ± 0.24; MOP Ke [9]: 0.051 ± 0.018
8 | COc1ccccc1CC(=O)O[C@@]12CCC(=O)[C@@H]3Oc4c(O)ccc5c4[C@@]31CCN(CC1CC1)[C@@H]2C5 [Compound 7h, 14β-(2′-methoxyphenylacetyl)-17-cyclopropylmethyl-7,8-dihydronoroxymorphinone] | 1.6 ± 0.3 | 50.4 ± 6.0% |  | 40.8 ± 5.4 | 479 ± 33.3 | 3.77 ± 0.9 | 19.2 ± 4.9 |  | 62.3 ± 4.9 | 0.5 ± 0.1 | 37.3 ± 0.7 | 3.52 ± 0.9 | 
9 | O=C(Cc1ccccc1F)O[C@@]12CCC(=O)[C@@H]3Oc4c(O)ccc5c4[C@@]31CCN(CC1CC1)[C@@H]2C5 [Compound 7i, 14β-(2′-fluorophenylacetyl)-17-cyclopropylmethyl-7,8-dihydronoroxymorphinone] | 4 ± 2 | 43.8 ± 4.7% | 4.07 ± 0.91 | 14.5 ± 2.9 | 94.1 ± 24.7 | 2.59 ± 1.1 |  |  | 69.7 ± 2.4 | 2 ± 0.7 | 27.9 ± 2.8 | 4.55 ± 0.7 | 
10 | O=C(Cc1ccc(Cl)cc1)O[C@@]12CCC(=O)[C@@H]3Oc4c(O)ccc5c4[C@@]31CCN(CC1CC1)C2C5 [Compound 7j, 14β-(4′-chlorophenylacetyl)-17-cyclopropylmethyl-7,8-dihydronoroxymorphinone] | 5.4 ± 1.3 | 37.1 ± 0.2% | 4.95 ± 1.1 | 18.9 ± 2.7 | 298 ± 18.6 | 1.78 ± 0.03 | 37.2 ± 0.2 |  | 51.3 ± 14 |  | 8.2 ± 7.2 | 3.95 ± 0.59 | Type of antagonism at MOP [9]: non-competitive; MOP pA2 [9]: Non-competitive
11 | O=C(Cc1ccccc1Cl)O[C@@]12CCC(=O)[C@@H]3Oc4c(O)ccc5c4[C@@]31CCN(CC1CC1)[C@@H]2C5 [Compound 7k, 14β-(2′-chlorophenylacetyl)-17-cyclopropylmethyl-7,8-dihydronoroxymorphinone] | 13.9 ± 6.4 | 31.3 ± 5.6% | 3.24 ± 0.15 | 49.9 ± 0.7 | 808 ± 45.8 | 4.66 ± 1.8 |  |  | 32.6 ± 2.3 | 2.4 ± 0.6 | 39.3 ± 4.7 | 1.34 ± 0.5 | 
12 | CN1CC[C@]23c4c5ccc(O)c4O[C@H]2[C@@H](O)C=C[C@H]3[C@H]1C5 [morphine, Morphine hydrochloride, reference compound] |  |  |  |  |  |  |  |  |  |  |  |  | %MPE, tail flick, positive control ([11]; 3 mg/kg, 30, 60, 120 min): anticipated increase in %MPE at all time points
